Reference: publication PMC7311426, “An amphipathic peptide with antibiotic activity against multidrug-resistant Gram-negative bacteria” (Nature Communications, 2020)
Converted amounts (≈) assume the structure as drawn. Read-outs that look alike come from different tables or passages of the source.

Tests used:
P. aeruginosa = experiment: microbe, parasite or virus in culture; format: cell-based, Pseudomonas aeruginosa; set-up: MIC, Survanta (5%) replicates: unit not given beside the values; conditions: for MIC: Pseudomonas aeruginosa
E. coli ATCC 25922 = format: cell-based, Escherichia coli; conditions: E. coli ATCC 25922, FDA control strain; BMD with 5% Survanta lung surfactant; mode, or median where no mode, n=4 to 6; where n=2 differs the higher value
E. coli = tested on: E. coli; set-up: method as in Hasman H, et al. Euro. Surveill. (2015) 20:49; conditions: E. coli ESBL20150072, mcr-1 pos; ESBL; CAMHB; comparator antibiotics; ref Hasman H, et al. Euro. Surveill. (2015) 20:49; cited from earlier work
L. monocytogenes = experiment: microbe, parasite or virus in culture; conditions: Listeria monocytogenes, ATCC19112, read-out: BMD MIC
Method in brief: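 Broth microdilution in MHB, 2-fold 12-point series from 128 or 64 down to 0.06 or 0.03 μg mL^−1, 5 × 10^5 CFU mL^−1. Extra runs in CAMHB per CLSI and in MHB with 1% agarose; n ≥ 6.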

[1] = P. aeruginosa FADDI-070, MDR, PmxR, BMD with 5% Survanta lung surfactant, mode, or median where no mode, n=4 to 6, where n=2 differs the higher value
[2] = P. aeruginosa FADDI-070, MDR, PmxR, BMD with 5% Survanta lung surfactant, replicate 1
[3] = P. aeruginosa FADDI-070, MDR, PmxR, BMD with 5% Survanta lung surfactant, replicate 2
[4] = P. aeruginosa FADDI-070, MDR, PmxR, BMD with 5% Survanta lung surfactant, replicate 3
[5] = P. aeruginosa FADDI-070, MDR, PmxR, BMD with 5% Survanta lung surfactant, replicate 4
[6] = P. aeruginosa FADDI-070, MDR, PmxR, BMD with 50% human serum, replicate 1
[7] = P. aeruginosa FADDI-070, MDR, PmxR, BMD with 50% human serum, replicate 2
[8] = P. aeruginosa FADDI-070, MDR, PmxR, BMD with 50% human serum, where n=2 differs the higher value is recorded

COc1cc(Cc2cnc(N)nc2N)cc(OC)c1OC [Trimethoprim]
MIC, Serum (50%) (P. aeruginosa): >64
MIC, Serum (50%) replicates (P. aeruginosa): >64
MIC, Survanta (5%) (P. aeruginosa): >64
MIC, Survanta (5%) replicates (P. aeruginosa): >64
MIC, Survanta (5%) (P. aeruginosa; [1]): >64
MIC, Survanta (5%) replicates (P. aeruginosa; [2]): >64
MIC, Survanta (5%) replicates (P. aeruginosa; [3]): >64
MIC, Survanta (5%) replicates (P. aeruginosa; [4]): >64
MIC, Survanta (5%) replicates (P. aeruginosa; [5]): >64
MIC, Serum (50%) replicates (P. aeruginosa; [6]): >64
MIC, Serum (50%) replicates (P. aeruginosa; [7]): 64
MIC, Serum (50%) (P. aeruginosa; [8]): ≥64
MIC (P. aeruginosa; ATCC27853, read-out: MIC, Serum (50%)): > 64 µg/mL
MIC (P. aeruginosa; ATCC27853, read-out: MIC, Survanta (5%)): > 64 µg/mL
MIC (P. aeruginosa; read-out: MIC, Serum (50%)): ≥ 64 µg/mL
MIC (P. aeruginosa; read-out: MIC, Survanta (5%)): > 64 µg/mL
MIC, Survanta (5%) (E. coli ATCC 25922): 1

C[C@@H](O)[C@H]1C(=O)N2C(C(=O)O)=C(S[C@@H]3CN[C@H](C(=O)N(C)C)C3)[C@H](C)[C@H]12 [Meropenem, meropenem, reference compound]
BMD MIC (E. coli): ≤1 µg/mL
MIC (L. monocytogenes): 0.5 µg/mL (≈ 1.3 µM)

CNC(C)C1CCC(N)C(OC2C(N)CC(N)C(OC3OCC(C)(O)C(NC)C3O)C2O)O1 (stereo not shown) [Gentamicin, gentamicin, reference compound]
BMD MIC (E. coli): >8 µg/mL
MIC (L. monocytogenes): 0.125 µg/mL (≈ 0.262 µM)

O=C(O)c1cn(C2CC2)c2cc(N3CCNCC3)c(F)cc2c1=O [Ciprofloxacin, ciprofloxacin]
BMD MIC (E. coli): >2 µg/mL
MIC, Survanta (5%) (P. aeruginosa; P. aeruginosa ATCC 27853, control strain, BMD with 5% Survanta lung surfactant, mode, or median where no mode, n=4 to 6, where n=2 differs the higher value): 1
MIC, Survanta (5%) replicates (P. aeruginosa; P. aeruginosa ATCC 27853, control strain, BMD with 5% Survanta lung surfactant, replicate 1): 1
MIC, Survanta (5%) replicates (P. aeruginosa; P. aeruginosa ATCC 27853, control strain, BMD with 5% Survanta lung surfactant, replicate 2): 1
MIC, Survanta (5%) replicates (P. aeruginosa; P. aeruginosa ATCC 27853, control strain, BMD with 5% Survanta lung surfactant, replicate 3): 0.5
MIC, Survanta (5%) replicates (P. aeruginosa; P. aeruginosa ATCC 27853, control strain, BMD with 5% Survanta lung surfactant, replicate 4): 0.5
MIC, Serum (50%) replicates (P. aeruginosa; P. aeruginosa ATCC 27853, control strain, BMD with 50% human serum, replicate 1): 0.125
MIC, Survanta (5%) (P. aeruginosa; [1]): 0.5
MIC, Survanta (5%) replicates (P. aeruginosa; [2]): 1
MIC, Survanta (5%) replicates (P. aeruginosa; [3]): 1
MIC, Survanta (5%) replicates (P. aeruginosa; [4]): 0.125
MIC, Survanta (5%) replicates (P. aeruginosa; [5]): 0.5
MIC, Serum (50%) replicates (P. aeruginosa; [6]): 0.06
MIC, Serum (50%) replicates (P. aeruginosa; [7]): 0.06
MIC, Serum (50%) (P. aeruginosa; [8]): 0.06
MIC (P. aeruginosa; ATCC27853, read-out: MIC, Survanta (5%), P. aeruginosa ATCC 27853 control strain, n=2 to 6, mode or median): 1 µg/mL (≈ 3.02 µM)
MIC (P. aeruginosa; read-out: MIC, Serum (50%)): 0.06 µg/mL (≈ 0.181 µM)
MIC (P. aeruginosa; read-out: MIC, Survanta (5%)): 0.5 µg/mL (≈ 1.51 µM)
MIC, Survanta (5%) (E. coli ATCC 25922): ≤0.03
